Reference: ChEMBL document CHEMBL4417624, “Small molecule c-myc inhibitors” (2016)
The source made the active and inactive calls. No cut-off for these calls is given here.

How the values were obtained:
[1] = biological target: Myc proto-oncogene protein (Homo sapiens) (UniProt P01106); assay: Inhibition of human ATG-Myc expressed in chicken embryo fibroblasts assessed as reduction in Myc-induced oncogenic transformation by measuring efficiency of oncogenic transformation at 10 uM
c-Myc/Max (Homo sapiens) [2] = biological target: T1, c-Myc/Max (Homo sapiens) (UniProt P01106+P61244); assay: Inhibition of dimerization of human MYC bHLH-LZ domain/MAX bHLH-LZ domain expressed in Escherichia coli in presence of Alexa Fluor 594-tagged E-box duplex DNA by fluorescence polarization assay
[3] = Toxicity in nude mouse xenografted with human MDA-MB-231 cells assessed as effect on body weight at 10 mg/kg, ip dosed daily for 31 days; assay type: organism-based; conditions: in vivo, 744 h
Avian sarcoma virus 17 = assay: Inhibition of Avian sarcoma virus 17 v-Jun expressed in chicken embryo fibroblasts assessed as reduction in Myc-induced oncogenic transformation by measuring efficiency of oncogenic transformation up to 20 uM
Homo sapiens [4] = species on record: Homo sapiens; assay: Antiproliferative activity against human Akata cells assessed as inhibition of cell proliferation at 2.5 to 10 uM incubated for 72 hrs by resazurin dye based assay; assay type: functional
MDA-MB-231 [5] = assay: Antitumor activity against human MDA-MB-231 cells xenografted in nude mouse assessed as reduction tumor weight at 10 mg/kg, ip dosed daily for 31 days; assay type: functional, organism-based
HL-60 = assay: Antiproliferative activity against human HL60 cells assessed as inhibition of cell proliferation at 25 uM incubated for 3 days by Cell-titer 96 Non-radioactive cell proliferation assay; assay type: functional, cell-based
Homo sapiens [6] = species on record: Homo sapiens; assay: Inhibition of PI3K H1047R mutant (unknown origin) expressed in chicken embryo fibroblasts assessed as reduction in Myc-induced oncogenic transformation by measuring efficiency of oncogenic transformation up to 20 uM
[7] = Antiproliferative activity against HSF assessed as inhibition of cell proliferation at 50 uM incubated for 3 days by Cell-titer 96 Non-radioactive cell proliferation assay; conditions: human, 72 h
Raji = assay: Antiproliferative activity against human Raji cells assessed as inhibition of cell proliferation at 2.5 to 10 uM incubated for 72 hrs by resazurin dye based assay; assay type: functional
Ramos = assay: Antiproliferative activity against human Ramos cells assessed as inhibition of cell proliferation at 2.5 to 10 uM incubated for 72 hrs by resazurin dye based assay; assay type: functional
Cotesia glomerata [8] = assay: Antiproliferative activity against v-myc-transformed primary QEF/MC29 cells assessed as inhibition of cell proliferation at 50 uM incubated for 3 days by Cell-titer 96 Non-radioactive cell proliferation assay; assay type: functional
[9] = Acute toxicity in rat at 10 mg/kg; assay type: organism-based; conditions: in vivo
SW480 = assay: Antiproliferative activity against human SW480 cells assessed as inhibition of cell proliferation at 50 uM incubated for 3 days by Cell-titer 96 Non-radioactive cell proliferation assay; assay type: functional, cell-based
Cotesia glomerata [10] = assay: Antiproliferative activity against methylcholanthrene-transformed primary quail embryo fibroblasts assessed as inhibition of cell proliferation at 50 uM incubated for 3 days by Cell-titer 96 Non-radioactive cell proliferation assay; assay type: functional
Rous sarcoma virus = assay: Inhibition of Rous sarcoma virus v-SRC expressed in chicken embryo fibroblasts assessed as reduction in Myc-induced oncogenic transformation by measuring efficiency of oncogenic transformation up to 20 uM
MOLT-4 = assay: Antiproliferative activity against human MOLT4 cells assessed as inhibition of cell proliferation at 25 uM incubated for 3 days by Cell-titer 96 Non-radioactive cell proliferation assay; assay type: functional, cell-based
MDA-MB-231 [11] = assay: Antitumor activity against human MDA-MB-231 cells xenografted in nude mouse assessed as reduction tumor volume at 10 mg/kg, ip dosed daily for 31 days; assay type: functional, organism-based
MDA-MB-231 [12] = assay: Antiproliferative activity against human MDA-MB-231 cells assessed as inhibition of cell proliferation at 10 to 40 uM incubated for 3 days by Cell-titer 96 Non-radioactive cell proliferation assay; assay type: functional, cell-based
Mus musculus [13] = assay: Inhibition of Myc in nude mouse xenografted with human MDA-MB-231 cells assessed as increase in NDRG1 expression at 10 mg/kg, ip dosed daily for 31 days by immunofluorescent staining; assay type: functional, organism-based
Mus musculus [14] = assay: Inhibition of Myc in nude mouse xenografted with human MDA-MB-231 cells assessed as increase in NDRG1 expression at 10 mg/kg, ip dosed daily for 31 days by Western blot analysis; assay type: functional, organism-based
[15] = Acute toxicity in mouse at 10 mg/kg; assay type: organism-based; conditions: in vivo
MDA-MB-231 [16] = assay: Effect on Myc expression in human MDA-MB-231 cells at 20 uM incubated for 24 hrs by Western blot analysis; assay type: functional, cell-based
SUM-159-PT = assay: Antiproliferative activity against human SUM159PT cells assessed as inhibition of cell proliferation at 10 to 40 uM incubated for 3 days by Cell-titer 96 Non-radioactive cell proliferation assay; assay type: functional, cell-based
NCI-H460 = assay: Antiproliferative activity against human NCI-H460 cells assessed as inhibition of cell proliferation at 10 to 40 uM incubated for 3 days by Cell-titer 96 Non-radioactive cell proliferation assay; assay type: functional, cell-based
K562 = assay: Antiproliferative activity against human K562 cells assessed as inhibition of cell proliferation at 25 uM incubated for 3 days by Cell-titer 96 Non-radioactive cell proliferation assay; assay type: functional, cell-based
[17] = biological target: Myc proto-oncogene protein (Homo sapiens) (UniProt P01106); assay: Inhibition of human ATG-Myc expressed in chicken embryo fibroblasts assessed as reduction in Myc-induced oncogenic transformation by measuring efficiency of oncogenic transformation
[18] = biological target: Myc proto-oncogene protein (Homo sapiens) (UniProt P01106); conditions: MDA-MB-231, 20 uM
Description: Inhibition of Myc in human MDA-MB-231 cells assessed as increase in NDRG1 expression at 20 uM incubated for 24 hrs by Western blot analysis

c-Myc/Max (Homo sapiens) [19] = biological target: T1, c-Myc/Max (Homo sapiens); assay: Inhibition of MYC/MAX dimerization in human MDA-MB-231 cells assessed as reduction in Myc expression at 20 uM incubated for 24 hrs by Western blot analysis; assay type: cell-based
c-Myc/Max (Homo sapiens) [20] = biological target: T1, c-Myc/Max (Homo sapiens); assay: Inhibition of MYC/MAX dimerization in human MDA-MB-231 cells assessed as increase in NDRG1 expression at 20 uM incubated for 24 hrs by Western blot analysis; assay type: cell-based

Myc proto-oncogene protein (Homo sapiens), sequence (P01106 whole entry, the tested form may be a part): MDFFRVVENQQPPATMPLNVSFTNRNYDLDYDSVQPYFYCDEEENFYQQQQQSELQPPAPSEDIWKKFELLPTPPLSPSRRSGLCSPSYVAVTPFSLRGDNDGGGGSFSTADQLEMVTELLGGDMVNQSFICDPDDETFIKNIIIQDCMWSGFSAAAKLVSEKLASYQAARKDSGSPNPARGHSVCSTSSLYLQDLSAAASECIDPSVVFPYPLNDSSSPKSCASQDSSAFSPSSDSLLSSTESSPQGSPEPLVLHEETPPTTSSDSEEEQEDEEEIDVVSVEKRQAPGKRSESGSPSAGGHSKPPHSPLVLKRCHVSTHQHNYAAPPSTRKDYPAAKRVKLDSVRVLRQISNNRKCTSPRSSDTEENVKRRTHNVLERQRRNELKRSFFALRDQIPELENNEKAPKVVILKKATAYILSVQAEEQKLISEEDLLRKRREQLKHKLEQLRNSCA

NC(=O)c1ccc(-c2cc(-c3ccc([N+](=O)[O-])cc3)nc(-c3ccc(Br)cn3)c2)cc1
inhibition [1]: inactive
inhibition (c-Myc/Max (Homo sapiens) [2]): inactive

NC(=O)c1ccc(-c2cc(-c3ccc([N+](=O)[O-])cc3)nc(-c3ccccc3Br)c2)cc1
inhibition [1]: inactive
inhibition (c-Myc/Max (Homo sapiens) [2]): inactive

CS(=O)(=O)c1ccc(-c2cc(-c3ccc(C(N)=O)cc3)cc(-c3ccco3)n2)cc1
inhibition [1]: inactive
inhibition (c-Myc/Max (Homo sapiens) [2]): inactive

NC(=O)c1ccc(-c2cc(-c3ccc([N+](=O)[O-])cc3)nc(-c3ccco3)c2)cc1
Activity [3]: Non-Toxic
inhibition (Avian sarcoma virus 17): Active
Activity (Homo sapiens [4]): Active
Activity (MDA-MB-231 [5]): Active
Activity (HL-60): Active
inhibition (Homo sapiens [6]): Active
Activity [7]: Non-Toxic
Activity (Raji): Active
inhibition [1]: 100%
Activity (Ramos): Active
Activity (Cotesia glomerata [8]): Active
Activity [9]: Non-Toxic
Activity (SW480): inactive
inhibition (c-Myc/Max (Homo sapiens) [2]): Active
Activity (Cotesia glomerata [10]): Active
inhibition (Rous sarcoma virus): inactive
Activity (MOLT-4): Active
Activity (MDA-MB-231 [11]): Active
Activity (MDA-MB-231 [12]): Active
inhibition (Mus musculus [13]): Active
inhibition (Mus musculus [14]): Active
Activity [15]: Non-Toxic
Activity (MDA-MB-231 [16]): inactive
Activity (SUM-159-PT): Active
Activity (NCI-H460): Active
Activity (K562): Active
inhibition [17]: Dose-dependent effect
inhibition [18]: Active

NC(=O)c1ccc(-c2cc(-c3ccc(Br)cc3)nc(-c3ccc([N+](=O)[O-])cc3)c2)cc1
inhibition [1]: inactive
inhibition (c-Myc/Max (Homo sapiens) [2]): inactive

NC(=O)c1ccc(-c2cc(-c3ccc(SC(F)(F)F)cc3)nc(-c3ccco3)c2)cc1
inhibition [1]: inactive
inhibition (c-Myc/Max (Homo sapiens) [2]): inactive

NC(=O)c1ccc(-c2cc(-c3ccc([N+](=O)[O-])cc3)nc(-c3ccccn3)c2)cc1
inhibition [1]: inactive
inhibition (c-Myc/Max (Homo sapiens) [2]): inactive

NC(=O)c1ccc(-c2cc(-c3ccc(S(N)(=O)=O)cc3)nc(-c3ccco3)c2)cc1
inhibition (c-Myc/Max (Homo sapiens) [2]): Active

CN1CCN(c2ccc(-c3cc(-c4ccc(C(N)=O)cc4)cc(-c4ccc([N+](=O)[O-])cc4)n3)cc2)CC1
inhibition (c-Myc/Max (Homo sapiens) [2]): inactive
inhibition [17]: Active

NC(=O)c1ccc(-c2cc(-c3ccc([N+](=O)[O-])cc3)nc(-c3cccc(Br)n3)c2)cc1
inhibition [1]: inactive
inhibition (c-Myc/Max (Homo sapiens) [2]): inactive

NC(=O)c1ccc(-c2cc(-c3ccc([N+](=O)[O-])cc3)nc(-c3ccco3)c2)o1
inhibition [1]: Active
inhibition (c-Myc/Max (Homo sapiens) [2]): Active

CCc1ccc(/C=C2/SC(=S)NC2=O)cc1
inhibition (c-Myc/Max (Homo sapiens) [19]): Active
inhibition (c-Myc/Max (Homo sapiens) [20]): Active

NC(=O)c1ccc(-c2cc(-c3ccc(C(F)(F)F)cc3)nc(-c3ccco3)c2)cc1
inhibition [1]: Active
inhibition (c-Myc/Max (Homo sapiens) [2]): Active

COC(=O)c1cccc(-c2cc(-c3ccc(C(N)=O)cc3)cc(-c3ccco3)n2)c1
inhibition [1]: 100%
inhibition (c-Myc/Max (Homo sapiens) [2]): Active
inhibition [17]: Active

NC(=O)c1ccc(-c2cc(-c3ccncc3)nc(-c3ccc([N+](=O)[O-])cc3)c2)cc1
inhibition [1]: 100%
inhibition (c-Myc/Max (Homo sapiens) [2]): Active

N#Cc1ccc(-c2cc(-c3ccc(C(N)=O)cc3)cc(-c3ccco3)n2)cc1
inhibition [1]: 100%
inhibition (c-Myc/Max (Homo sapiens) [2]): Active
inhibition [17]: Active

NC(=O)c1ccc(-c2cc(-c3ccc(OC(F)(F)F)cc3)nc(-c3ccco3)c2)cc1
inhibition [1]: Active
inhibition (c-Myc/Max (Homo sapiens) [2]): Active

COC(=O)c1ccc(-c2cc(-c3ccc(C(N)=O)cc3)cc(-c3ccco3)n2)cc1
inhibition [1]: inactive
inhibition (c-Myc/Max (Homo sapiens) [2]): inactive
